Experiments:
human alpha2A receptors = molecular target: T1, human alpha2A receptors (Homo sapiens, UniProt P08913); assay: cell-based
T1 sequence (P08913 1-465): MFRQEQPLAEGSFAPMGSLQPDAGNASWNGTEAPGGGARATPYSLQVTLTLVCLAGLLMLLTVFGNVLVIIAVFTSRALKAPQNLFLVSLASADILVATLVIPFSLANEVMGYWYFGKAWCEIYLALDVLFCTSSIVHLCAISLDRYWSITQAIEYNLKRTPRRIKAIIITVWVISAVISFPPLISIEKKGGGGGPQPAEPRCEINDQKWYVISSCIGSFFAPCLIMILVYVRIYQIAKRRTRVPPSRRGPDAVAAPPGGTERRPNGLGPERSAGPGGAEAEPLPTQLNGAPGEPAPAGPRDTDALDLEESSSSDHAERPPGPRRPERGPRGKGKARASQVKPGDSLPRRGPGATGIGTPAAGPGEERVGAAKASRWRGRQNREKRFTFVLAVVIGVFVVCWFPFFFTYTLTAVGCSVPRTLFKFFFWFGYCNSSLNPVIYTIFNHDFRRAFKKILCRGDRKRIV
Experimental: (§1) Experiment 1: Determination of alpha2A and alpha2C Antagonistic Activity In Vitro
(§2) The growth medium was removed and the cells were incubated with the test compounds and the FLIPR Calcium 6 Assay reagent (Molecular Devices, CA, USA) for 2 h at 37° C. in dark. The test compounds (concentrations in cells 100 pM-10 μM) were dissolved in Probenecid-Ringer consisting of 150 mM NaCl, 3 mM KCl, 1.2 mM MgCl2, 1 mM CaCl2, 5 mM glucose, 20 mM HEPES and 2.5 mM probenecid (pH 7.4 adjusted with 1.0 M NaOH). […] All experiments were performed at 37° C. For agonism measurements the test compounds dissolved in Probenecid-Ringer were applied by FLIPR Tetra at 15 s time point. In order to determine antagonism, the cells were stimulated either with 100 nM adrenaline or noradrenaline and the test compounds were added to the cells 2 h before the experiment with the FLIPR Calcium 6 Assay reagent. […] Typically, there were four replicates at each concentration and six different dose levels. […] The minimum fluorescence value subtracted from the maximum value for each well was used in the calculations. ScreenWorks version 4.0 software was used for analyzing the results. Fitting of the antagonist dose-response results was performed with the free Hill equation and the IC50 values were fitted with IDBS XE software using model 200: y=(A+(B/(1+((x/C)̂D)))), where A is the curve maximum, B the curve minimum and C equals the EC50 value. D is slope factor (Hill). Kb was calculated with the Cheng-Prusoff equation Kb=A/((B/C)+1), where A is the IC50 of antagonist, B the concentration of agonist and C the EC50 of the agonist.

human alpha2C receptors = molecular target: T2, human alpha2C receptors (Homo sapiens, UniProt P18825); assay: Determination of alpha2C antagonistic activity in vitro (FLIPR calcium assay); conditions: for Kb: Alpha 2C Adrenaline Kb, Kb calculated from IC50 with the Cheng-Prusoff equation, adrenaline as agonist, CHO cells, human alpha2C
T2 sequence (P18825 1-462): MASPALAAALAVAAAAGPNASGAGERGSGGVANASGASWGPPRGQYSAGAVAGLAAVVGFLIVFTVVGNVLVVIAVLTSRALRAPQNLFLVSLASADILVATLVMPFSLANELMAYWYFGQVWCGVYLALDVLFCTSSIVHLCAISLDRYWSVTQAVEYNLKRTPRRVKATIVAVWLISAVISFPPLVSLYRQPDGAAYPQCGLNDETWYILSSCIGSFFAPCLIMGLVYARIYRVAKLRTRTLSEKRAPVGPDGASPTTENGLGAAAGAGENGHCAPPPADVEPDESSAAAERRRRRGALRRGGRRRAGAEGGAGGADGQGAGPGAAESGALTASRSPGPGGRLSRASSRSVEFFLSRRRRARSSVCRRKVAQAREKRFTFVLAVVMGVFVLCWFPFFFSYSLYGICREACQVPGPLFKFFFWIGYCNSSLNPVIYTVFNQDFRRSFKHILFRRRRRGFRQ
Experimental: as §1, §2

Row | SMILES | IC50 (human alpha2A receptors) [nM] | Kb (human alpha2A receptors) [nM] | IC50 (human alpha2C receptors) [nM] | Kb (human alpha2C receptors) [nM]
1 | CC1CCN([C@H]2CCCN(C[C@H]3COc4ccccc4O3)C2)C1=O (single isomer, unassigned; diastereomer 1) [example 98] | > 10000 | > 449 | 9.26 | 0.93
2 | C[C@@H](c1ccccc1)N1C(=O)C(=O)N([C@H]2CCCN(C[C@H]3COc4ccccc4O3)C2)C1=O [compound 133, 1-((S)-1-(((S)-2,3-Dihydrobenzo[b][1,4]dioxin-2-yl)methyl)-piperidin-3-yl)-3-((S)-1-phenylethyl)imidazolidine-2,4,5-trione] | 807 | 36 | < 0.01 | < 0.001
3 | CC1(C)CC(=O)N([C@H]2CCCN(C[C@H]3COc4ccccc4O3)C2)C1 [example 1, 1-((S)-1-(((S)-2,3-Dihydrobenzo[b][1,4]dioxin-2-yl)methyl)piperidin-3-yl)-4,4-dimethylpyrrolidin-2-one] | > 10000 | > 449 | 0.32 | 0.03
4 | O=C1NC(c2ccccc2)(c2ccccc2)CN1[C@H]1CCCN(C[C@H]2COc3ccccc3O2)C1 [example 2, 1-((S)-1-(((S)-2,3-Dihydrobenzo[b][1,4]dioxin-2-yl)methyl)piperidin-3-yl)-4,4-diphenylimidazolidin-2-one] | 1330 | 60 | < 0.1 | < 0.01
5 | C[C@H]1C(=O)N([C@H]2CCCN(C[C@H]3COc4ccccc4O3)C2)C(=O)[C@@H]1C [example 4, (3R,4R)-1-((S)-1-(((S)-2,3-Dihydrobenzo[b][1,4]dioxin-2-yl)methyl)piperidin-3-yl)-3,4-dimethylpyrrolidine-2,5-dione] | > 10000 | > 449 | 1.77 | 0.18
6 | CCC1(CC)OC(=O)N([C@H]2CCCN(C[C@H]3COc4ccccc4O3)C2)C1=O [example 5, 3-((S)-1-(((S)-2,3-Dihydrobenzo[b][1,4]dioxin-2-yl)methyl)piperidin-3-yl)-5,5-diethyloxazolidine-2,4-dione] | 1300 | 58 | 0.13 | 0.01
7 | CC(C)N1C(=O)N([C@H]2CCCN(C[C@H]3COc4ccccc4O3)C2)C[C@H]1c1ccccc1 [example 6, (R)-1-((S)-1-(((S)-2,3-Dihydrobenzo[b][1,4]dioxin-2-yl)methyl)-piperidin-3-yl)-3-isopropyl-4-phenylimidazolidin-2-one] | 9870 | 443 | 672 | 67.7
8 | CC(C)N1C(=O)N([C@H]2CCCN(C[C@H]3COc4ccccc4O3)C2)C[C@@H]1c1ccccc1 [example 7, (S)-1-((S)-1-(((S)-2,3-Dihydrobenzo[b][1,4]dioxin-2-yl)methyl)piperidin-3-yl)-3-isopropyl-4-phenylimidazolidin-2-one] | 1730 | 78 | < 0.1 | < 0.01
9 | O=C1c2cccnc2CN1[C@H]1CCCN(C[C@H]2COc3ccccc3O2)C1 [example 10, 6-((S)-1-(((S)-2,3-Dihydrobenzo[b][1,4]dioxin-2-yl)methyl)piperidin-3-yl)-6,7-dihydro-5H-pyrrolo[3,4-b]pyridin-5-one] | > 10000 | > 449 | 3.78 | 0.379
10 | O=C1c2cnccc2CN1[C@H]1CCCN(C[C@H]2COc3ccccc3O2)C1 [example 11, 2-((S)-1-(((S)-2,3-Dihydrobenzo[b][1,4]dioxin-2-yl)methyl)piperidin-3-yl)-1H-pyrrolo[3,4-c]pyridin-3(2H)-one] | > 10000 | > 449 | 127 | 12.8
11 | CSc1ncc2c(n1)C(=O)N([C@H]1CCCN(C[C@H]3COc4ccccc4O3)C1)C2 [example 12, 6-((S)-1-(((S)-2,3-Dihydrobenzo[b][1,4]dioxin-2-yl)methyl)piperidin-3-yl)-2-(methylthio)-5H-pyrrolo[3,4-d]pyrimidin-7(6H)-one] | > 10000 | > 449 | 509 | 51.2
12 | O=C1c2ncsc2CN1[C@H]1CCCN(C[C@H]2COc3ccccc3O2)C1 [example 13, 5-((S)-1-(((S)-2,3-Dihydrobenzo[b][1,4]dioxin-2-yl)methyl)piperidin-3-yl)-5,6-dihydro-4H-pyrrolo[3,4-d]thiazol-4-one] | > 10000 | > 449 | 22.4 | 2.26
13 | C[C@]1(c2ccccc2)CCN([C@H]2CCCN(C[C@H]3COc4ccccc4O3)C2)C1=O [example 14, (R)-1-((S)-1-(((S)-2,3-Dihydrobenzo[b][1,4]dioxin-2-yl)methyl)piperidin-3-yl)-3-methyl-3-phenylpyrrolidin-2-one] | 5840 | 262 | 0.048 | 0.005
14 | C[C@@]1(c2ccccc2)CCN([C@H]2CCCN(C[C@H]3COc4ccccc4O3)C2)C1=O [example 15, (S)-1-((S)-1-(((S)-2,3-Dihydrobenzo[b][1,4]dioxin-2-yl)methyl)-piperidin-3-yl)-3-methyl-3-phenylpyrrolidin-2-one] | > 10000 | > 449 | 363 | 36.6
15 | CCN1CCN([C@H]2CCCN(C[C@H]3COc4ccccc4O3)C2)C1=O [example 16, 1-((S)-1-(((S)-2,3-Dihydrobenzo[b][1,4]dioxin-2-yl)methyl)piperidin-3-yl)-3-ethylimidazolidin-2-one] | > 10000 | > 449 | 0.57 | 0.06
16 | CC(C)(C)C1CN([C@H]2CCCN(C[C@H]3COc4ccccc4O3)C2)C(=O)O1 (stereo partly drawn) [example 18, 5-tert-Butyl-3-((S)-1-(((S)-2,3-dihydrobenzo[b][1,4]dioxin-2-yl)methyl)piperidin-3-yl)oxazolidin-2-one] | 8510 | 382 | 0.235 | 0.024
17 | CC(C)C1CN([C@H]2CCCN(C[C@H]3COc4ccccc4O3)C2)C(=O)O1 (stereo partly drawn) [example 19, 3-((S)-1-(((S)-2,3-Dihydrobenzo[b][1,4]dioxin-2-yl)methyl)piperidin-3-yl)-5-isopropyloxazolidin-2-one] | > 10000 | > 449 | 7.65 | 0.771
18 | CC(=O)NCC1CN([C@H]2CCCN(C[C@H]3COc4ccccc4O3)C2)C(=O)O1 (stereo partly drawn) [example 20, N-((3-((S)-1-(((S)-2,3-Dihydrobenzo[b][1,4]dioxin-2-yl)methyl)piperidin-3-yl)-2-oxooxazolidin-5-yl)methyl)acetamide] | > 10000 | > 449 | 6.91 | 0.696
19 | O=C1OC(c2ccc(F)cc2)CN1[C@H]1CCCN(C[C@H]2COc3ccccc3O2)C1 (stereo partly drawn) [example 21, 3-((S)-1-(((S)-2,3-Dihydrobenzo[b][1,4]dioxin-2-yl)methyl)piperidin-3-yl)-5-(4-fluorophenyl)oxazolidin-2-one] | 1400 | 63 | 1.9 | 0.191
20 | CSc1ncc2c(n1)CN([C@H]1CCCN(C[C@H]3COc4ccccc4O3)C1)C2=O [example 22, 6-((S)-1-(((S)-2,3-Dihydrobenzo[b][1,4]dioxin-2-yl)methyl)piperidin-3-yl)-2-(methylthio)-6,7-dihydro-5H-pyrrolo[3,4-d]pyrimidin-5-one] | > 10000 | > 449 | < 0.01 | < 0.001
21 | O=C1c2cncnc2CN1[C@H]1CCCN(C[C@H]2COc3ccccc3O2)C1 [example 23, 6-((S)-1-(((S)-2,3-Dihydrobenzo[b][1,4]dioxin-2-yl)methyl)piperidin-3-yl)-6,7-dihydro-5H-pyrrolo[3,4-d]pyrimidin-5-one] | > 10000 | > 449 | 18 | 1.81
22 | Cn1ncc2c1C(=O)N([C@H]1CCCN(C[C@H]3COc4ccccc4O3)C1)C2 [example 24, 5-((S)-1-(((S)-2,3-Dihydrobenzo[b][1,4]dioxin-2-yl)methyl)piperidin-3-yl)-1-methyl-4,5-dihydropyrrolo[3,4-c]pyrazol-6(1H)-one] | > 10000 | > 449 | 89.7 | 9.03
23 | O=S1(=O)Cc2ccccc2N1[C@H]1CCCN(C[C@H]2COc3ccccc3O2)C1 [example 25, 1-((S)-1-(((S)-2,3-Dihydrobenzo[b][1,4]dioxin-2-yl)methyl)piperidin-3-yl)-1,3-dihydrobenzo[c]isothiazole 2,2-dioxide] | 535 | 24 | 19.4 | 1.95

Reference: US20190152992A1, “BENZODIOXANE DERIVATIVES AND THEIR PHARMACEUTICAL USE” (Orion Corporation, priority 2016, published 2019)
